In patent US20220370453A1 (Storm Therapeutics Ltd, priority 2019, published 2022):

Assays:
BCDIN3D [1] = molecular target: T1, BCDIN3D (Homo sapiens, UniProt Q7Z5W3); assay: BCDIN3D IC50 RFMS (RapidFire) assay with mini-helix; assay type: biochemical; conditions: 25 nM enzyme
T1 sequence (Q7Z5W3 1-292): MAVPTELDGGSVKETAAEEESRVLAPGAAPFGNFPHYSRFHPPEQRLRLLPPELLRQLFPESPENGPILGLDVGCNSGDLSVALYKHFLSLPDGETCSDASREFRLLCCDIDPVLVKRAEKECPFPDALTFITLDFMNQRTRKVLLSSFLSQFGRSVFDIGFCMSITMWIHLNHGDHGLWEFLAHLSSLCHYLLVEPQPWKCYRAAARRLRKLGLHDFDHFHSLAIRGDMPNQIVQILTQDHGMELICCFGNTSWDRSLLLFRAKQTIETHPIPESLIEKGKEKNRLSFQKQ
Description: The following General Methods details the assay conditions for the Biological assays.
BCDIN3D IC50 RFMS Assay with Mini-Helix
The enzymatic assay was performed in a 384-well polypropylene plate in assay buffer with 25 mM Tris pH 8.0, 10 mM DTT, 1 mM EDTA, 0.03% BSA in a final assay volume of 20 μL. The enzyme with a final concentration of 25 nM was pre-incubated with the respective compound at 1% DMSO final assay concentration over 10 min at room temperature. The reaction was initiated by addition of 0.2 μM final assay concentration of mini-helix and 6 μM final concentration of SAM as substrates. After a 1 hr incubation at 37° C., the reaction was terminated with 40 μL of stop solution of 7.5% trichloroactetic acid in water containing 112.5 nM D4-SAH and 30 nM ^13C10-SAH used as internal standards. The SAH product concentrations as well as both internal standards were analyzed by a RapidFire High Throughput Mass Spectrometry System (Agilent Technologies, Santa Clara, Calif.) using an AP14000 triple quadrupole mass spectrometer (AB Sciex Framingham, Mass.).

BCDIN3D [2] = molecular target: T1, BCDIN3D; assay: BCDIN3D InCellPulse thermal stability assay in transfected A549 cells; assay type: cell-based; conditions: heat shock 58° C. 15 min
Description: BCDIN3D InCellPulse™ Assay
The thermal stability assay was performed with lipofectamine 3000 transiently transfected A549 using the plasmid pICP-ePL-BCDIN3 Da. This plasmid encodes for BCDIN3D N-terminally fused to a Prolabel (ePL), complementing a split β-Galactosidase Enzyme System InCELL Pulse Technology (InCELL Hunter Detection Kit, DiscoverX/Eurofins, cat: 96-0079L). 20 μl A549 cells (1500 cell/well) were added with a multidrop device to compounds to a final DMSO concentration of 0.6% in 384-well polypropylene plate format in IMDM medium and pre-incubated with the compounds for 1 h at 37° C. and 5% CO2. Subsequently, a heat shock was applied to the entire sealed plate in a 58° C. water bath for 15 min. The plates were cooled to RT, spun down and 25 μl/well of EA Detection Solution at 3.3× (InCELL Hunter Detection Kit) was added per well. 21 μl of the mixture was added to a black 384-well measurement plate (Corning, PS, black, Flat Bottom, #3575), mix for 30 minutes on a plate shaker at RT. Finally, the luminescence was measured with a Perkin Elmer EnVision with 0.2 s measurement time in luminescence mode.

[3] = mini-helix substrate 0.2 μM, SAM 6 μM
[4] = transiently transfected A549 cells
[5] = mini-helix 0.2 μM and SAM 6 μM as substrates, 1 hr at 37° C.
[6] = A549 cells transiently transfected with ePL-BCDIN3D, 1 h pre-incubation

Structure (SMILES)	IC50 (BCDIN3D [1]; [3])	IC50 (BCDIN3D [2]; [4])	IC50 (BCDIN3D [1]; [5])	IC50 (BCDIN3D [2]; [6])
Cn1ncc2c(NCc3ccc(C(F)(F)F)nc3)nc(NCC(N)c3ccccc3)nc21 (stereo not shown) [Compound 4.08, 6-N-(2-amino-2-phenylethyl)-1-methyl-4-N-[[6-(trifluoromethyl)pyridin-3-yl]methyl]pyrazolo[3,4-d]pyrimidine-4,6-diamine]	1080 nM	2950 nM	–	–
CC(C)Oc1ccc(Nc2nc(NC[C@H](N)c3ccccc3)nc3c2cnn3C)cc1 [Compound 4.33, N6-[(2R)-2-amino-2-phenyl-ethyl]-N4-(4-isopropoxyphenyl)-1-methyl-pyrazolo[3,4-d]pyrimidine-4,6-diamine]	64.4 nM	38 nM	–	–
Cn1ncc2c(Nc3ccc(C(F)(F)F)cc3)nc(N[C@H]3COC[C@H]3N)nc21 [Compound 1.36, N6-[(3R,4S)-4-aminotetrahydrofuran-3-yl]-1-methyl-N4-[4-(trifluoromethyl)phenyl]pyrazolo[3,4-d]pyrimidine-4,6-diamine]	–	–	5660 nM	10600 nM
Cn1ncc2c(Nc3ccc(C(F)(F)F)cc3)nc(NCC3(N)CC3)nc21 [Compound 2.44, 6-N-[(1-aminocyclopropyl)methyl]-1-methyl-4-N-[4-(trifluoromethyl)phenyl]pyrazolo[3,4-d]pyrimidine-4,6-diamine]	56.5 nM	329 nM	–	–
CCn1ncc2c(Nc3ccc(C(F)(F)F)cc3)nc(NCC3(N)CC3)nc21 [Compound 2.48, 6-N-[(1-aminocyclopropyl)methyl]-1-ethyl-4-N-[4-(trifluoromethyl)phenyl]pyrazolo[3,4-d]pyrimidine-4,6-diamine]	1080 nM	2430 nM	–	–
Cn1ncc2c(NC(C)(C)C)nc(NCC(N)c3ccccc3)nc21 (stereo not shown) [Compound 4.50, 6-N-(2-amino-2-phenylethyl)-4-N-tert-butyl-1-methylpyrazolo[3,4-d]pyrimidine-4,6-diamine]	196 nM	871 nM	–	–
COc1ccc(CNc2nc(NCC(C)(C)N)nc3c2cnn3C)cc1 [Compound 1.27, N6-(2-amino-2-methylpropyl)-N4-[(4-methoxyphenyl)methyl]-1-methyl-1H-pyrazolo[3,4-d]pyrimidine-4,6-diamine]	–	–	2880 nM	5340 nM
Cn1ncc2c(NC34CC(C#N)(C3)C4)nc(NCC3(N)CC3)nc21 [Compound 2.37, 3-[[6-[(1-aminocyclopropyl)methylamino]-1-methylpyrazolo[3,4-d]pyrimidin-4-yl]amino]bicyclo[1.1.1]pentane-1-carbonitrile]	8600 nM	16500 nM	–	–
[2H]C([2H])([2H])n1ncc2c(Nc3ccc(C(F)(F)F)cc3)nc(NCC(C)(N)c3ccccc3)nc21 (stereo not shown) [Compound 4.21, N6-(2-amino-2-phenyl-propyl)-1-(trideuteriomethyl)-N4-[4-(trifluoromethyl)phenyl]pyrazolo[3,4-d]pyrimidine-4,6-diamine]	42.8 nM	218 nM	–	–
Cn1ncc2c(NC(C)(C)C)nc(NCC(N)c3cccc(C4CC4)c3)nc21 (stereo not shown) [Compound 5.32, N6-[2-amino-2-(3-cyclopropylphenyl)ethyl]-N4-tert-butyl-1-methyl-1H-pyrazolo[3,4-d]pyrimidine-4,6-diamine]	70 nM	120 nM	–	–
Cn1ncc2c(NC3CC(F)(F)C3)nc(NCC(N)c3ccncc3)nc21 (stereo not shown) [Compound 5.27, N6-[2-amino-2-(4-pyridyl)ethyl]-N4-(3,3-difluorocyclobutyl)-1-methyl-pyrazolo[3,4-d]pyrimidine-4,6-diamine]	2810 nM	10000 nM	–	–
COc1ccc(CNc2nc(NCC(C)(C)N)nc3c2c(C)nn3C)cc1Cl [Compound 1.30, N6-(2-amino-2-methylpropyl)-N4-[(3-chloro-4-methoxyphenyl)methyl]-1,3-dimethyl-1H-pyrazolo[3,4-d]pyrimidine-4,6-diamine]	–	–	1850 nM	3790 nM
Cn1ncc2c(Nc3cc(F)cc(Cl)c3)nc(NCC3(N)CC3)nc21 [Compound 2.16, 6-N-[(1-aminocyclopropyl)methyl]-4-N-(3-chloro-5-fluorophenyl)-1-methylpyrazolo[3,4-d]pyrimidine-4,6-diamine]	452 nM	959 nM	–	–
COc1ccc(CNc2nc(NCC(C)(C)N)nc3c2cnn3C)cc1Cl [Compound 1.26, N6-(2-amino-2-methylpropyl)-N4-[(3-chloro-4-methoxyphenyl)methyl]-1-methyl-1H-pyrazolo[3,4-d]pyrimidine-4,6-diamine]	–	–	744 nM	1870 nM
Cn1ncc2c(N[C@H]3C[C@H](F)C3)nc(NC[C@H](N)c3ccccc3)nc21 [Compound 4.89, N6-[(2R)-2-amino-2-phenyl-ethyl]-N4-(3-fluorocyclobutyl)-1-methyl-pyrazolo[3,4-d]pyrimidine-4,6-diamine]	109 nM	223 nM	–	–
Cn1ncc2c(Nc3ccc(C(F)(F)F)nc3)nc(NCC3(N)CCOC3)nc21 (stereo not shown) [Compound 3.15, N6-[(3-aminotetrahydrofuran-3-yl)methyl]-1-methyl-N4-[6-(trifluoromethyl)-3-pyridyl]pyrazolo[3,4-d]pyrimidine-4,6-diamine]	1630 nM	6540 nM	–	–
CC(C)Cc1nc(NCC(N)c2ccccc2)nc2c1cnn2C (stereo not shown) [Compound 4.130, N2-[1-methyl-4-(2-methylpropyl)-1H-pyrazolo[3,4-d]pyrimidin-6-yl]-1-phenylethane-1,2-diamine]	6010 nM	11200 nM	–	–
Cc1nn(C)c2nc(NCC(C)(C)N)nc(NCc3ccc(-c4ccccc4)cc3)c12 [Compound 1.31, N6-(2-amino-2-methylpropyl)-N4-({[1,1′-biphenyl]-4-yl}methyl)-1,3-dimethyl-1H-pyrazolo[3,4-d]pyrimidine-4,6-diamine]	–	–	950 nM	814 nM
Cn1ncc2c(NC3CC34CC4)nc(NC[C@H](N)c3ccccc3)nc21 (stereo partly drawn) [Compound 4.80, N6-[(2R)-2-amino-2-phenyl-ethyl]-1-methyl-N4-spiro[2.2]pentan-2-yl-pyrazolo[3,4-d]pyrimidine-4,6-diamine]	656 nM	518 nM	–	–
CC(C)Nc1nc(NC[C@H](N)c2ccccc2)nc2c1cnn2C [Compound 4.47, 6-N-[(2R)-2-amino-2-phenylethyl]-1-methyl-4-N-propan-2-ylpyrazolo[3,4-d]pyrimidine-4,6-diamine]	253 nM	667 nM	–	–
Cn1ncc2c(NC(C)(C)C)nc(NC[C@H](N)c3ccccc3F)nc21 [Compound 7.12, N6-[(2R)-2-amino-2-(2-fluorophenyl)ethyl]-N4-tert-butyl-1-methyl-pyrazolo[3,4-d]pyrimidine-4,6-diamine]	–	–	–	2150 nM
Cc1ccc(CNc2nc(NC[C@H](C)N)nc3c2cnn3C)cc1Cl [Compound 3.03, 6-N-[(2S)-2-aminopropyl]-4-N-[(3-chloro-4-methylphenyl)methyl]-1-methylpyrazolo[3,4-d]pyrimidine-4,6-diamine]	5710 nM	–	–	–
Cn1ncc2c(NCC3CCN(Cc4ccccc4)CC3)nc(NCCN)nc21 [Compound 1.41, N6-(2-aminoethyl)-N4-[(1-benzylpiperidin-4-yl)methyl]-1-methyl-1H-pyrazolo[3,4-d]pyrimidine-4,6-diamine]	–	–	21100 nM	–
Cn1ncc2c(NC(C)(C)C)nc(NC[C@H](N)C3CCCCC3)nc21 [Compound 7.22, N6-[(2R)-2-amino-2-cyclohexylethyl]-N4-tert-butyl-1-methyl-1H-pyrazolo[3,4-d]pyrimidine-4,6-diamine]	–	–	800 nM	–
Cn1ncc2c(NC(C)(C)C)nc(NC[C@@H](N)c3ccc(F)c(F)c3)nc21 [Compound 7.21, N6-[(2S)-2-amino-2-(3,4-difluorophenyl)ethyl]-N4-tert-butyl-1-methyl-1H-pyrazolo[3,4-d]pyrimidine-4,6-diamine]	–	–	4.62 nM	–
Cn1ncc2c(NCc3ccc(Cl)cc3F)nc(NCCN)nc21 [Compound 1.18, N6-(2-aminoethyl)-N4-[(4-chloro-2-fluorophenyl)methyl]-1-methyl-1H-pyrazolo[3,4-d]pyrimidine-4,6-diamine]	–	–	4750 nM	–
